# Source: publication PMC9416257, “Design, Synthesis and Preliminary Evaluation of the Cytotoxicity and Antibacterial Activity of Novel Triphenylphosphonium Derivatives of Betulin” (Molecules, 2022)
# Read-outs that look alike come from different tables or passages of the source.
# Legend:
# [1] = tested on: NHDF (Normal Human Dermal Fibroblast cells); assay: Cytotoxicity, CCK-8 cell viability assay (safety on normal cells); format: cell-based; conditions: read-out: Activity IC50, NHDF
# Experimental: (§1) The obtained new molecular hybrids of BN were screened in order to initially investigate their cytotoxicity as well as examine the relationships between the structure and biological effect. The common element of all of the tested compounds was the presence of a lipophilic moiety (CH2)nTPP^⊕ (n = 3, 4, 5). The research was conducted on two groups of compounds: 28-TPP^⊕ BN and 3,28-bisTPP^⊕ BN. Their cytotoxicity was investigated on two cancer cell lines: HCT 116 (colorectal carcinoma cell line) and MCF-7 (human breast adenocarcinoma cell line). The proliferation of tumor cells treated with the tested compounds (7 and 9) at 12.5–3.125 µM concentrations were determined after 24 h of incubation. Additionally, all compounds were tested against the NHDF cell line (Normal Human Dermal Fibroblast cells) to assess their safety. Half-maximal inhibitory concentrations (IC50) of triphenylphosphonium analogs of BN were determined using a CCK-8 assay and are summarized in Table 2.
# (§2) The human colorectal carcinoma cell line (HCT 116) and the human breast adenocarcinoma cell line (MCF-7) cells were purchased from the American Type Culture Collection (ATCC, Manassas, VA, USA). The Normal Human Dermal Fibroblast (NHDF) cells were purchased from Lonza (Dermal Fibroblasts, Lonza, Poland). All cells were cultured under standard conditions at 37 °C in a humidified atmosphere at 5% CO2 in DMEM/F12 medium (PAA) supplemented with 10% of heat-inactivated fetal bovine serum (FBS, EURx, Gdansk, Poland) and antibiotics (penicillin/streptomycin).
# (§3) Cells were seeded at 7500 (HCT 116) or 10,000 (MCF-7, NHDF) cells/well in 96-well plates. After 24 h, the culture medium was removed and 100 µL of fresh medium containing the test compounds at 0–12.5 µM concentrations was added to the culture wells. The test compounds were dissolved in DMSO to obtain a stock solution with a concentration of 5 mM (betulin) or 10 mM (other test compounds). The stock solution was diluted with the fresh culture medium to the desired concentration. Controls were cells grown in medium without the addition of test compounds. After 24 h of incubation with the test compounds, 10 µL of CCK-8 reagent (Bimake, Houston, TX, USA) was added to each well. After 2 h, the absorbance of the samples was measured at a wavelength of 450 nm using a microplate reader (Epoch, BioTek Instruments, Winooski, VT, USA). The determinations were conducted in at least three biological replications (each biological replication contained 3 technical replications). The cell viability rate was calculated using CalcuSyn software (version 2.0, Biosoft, Cambridge, UK).
# [2] = tested on: S. epidermidis ATCC 12228; assay: Antibacterial assay, optical density of culture in TSB; format: cell-based, Staphylococcus epidermidis; conditions: 18 h; for Difference between optical density before and after culture, S. epidermidis ATCC 12228: 37 °C; for Inhibition of growth of S. epidermidis ATCC 12228 (in words): 250 µM
# Experimental: (§4) Investigations were carried out using different concentrations of solutions from 25 to 250 µM. A 25 µM concentration of the tested derivatives was not enough to inhibit the growth of […]. When the concentration of analogs 7d–7f and 9a–9c increased to 200 µM, the growth of S. aureus ATCC 25923 and S. epidermidis ATCC 12228 was inhibited. Furthermore, the optical density of all compounds remained unchanged after 18 h of bacteria culture. In the case of analogs 7a–7c, the optical density values were between 0.9 and 2.2 when they were cultured with S. aureus ATCC 25923. The bacterial growth was slower compared to the control sample (TSB-culture medium). […] In the case of analog 7c, the optical density increased up to […] after 18 h of the sample culture with both kinds of Gram-positive bacteria. In contrast, the reference sample’s (TSB) optical density increased to 7.5 for S. aureus ATCC 25923, and 4.9 for S. epidermidis ATCC 12228 after 18 h of bacteria culture. […] All of the analog values of the measured optical density were similar to that of the reference sample (5.0–5.1, Table 3).
# (§5) Antibacterial analysis was performed using the S. aureus ATCC 25923, S. epidermidis ATCC 12228, and Escherichia coli ATCC 25922 bacteria strains. The test compounds were dissolved in DMSO to obtain a stock solution with a concentration of 5 mM (betulin) or 10 mM (other test compounds). The stock solution was diluted with water to the desired concentration (25–250 µM). Then, 1 mL of the investigated solutions was mixed with 1 mL of culture medium (TSB, Biomaxima, Lublin, Poland) in a sterile glass tube. The initial concentration of bacteria was around 5 × 10^6 CFU/mL. The concentration of bacteria was measured using an optical densitometer before and after 18 h of bacteria culture in glass tubes at 37 °C (incubator POL-EKO, Wodzislaw Slaski, Poland). The investigations were repeated for three independent samples. The control sample was the culture medium without any supplementation.
# [3] = tested on: Escherichia coli ATCC 25922; assay: as above; format: cell-based; conditions: 37 °C, 18 h; note: key: 0: no difference between samples after 18 h of bacteria culture (bacteria grow was inhibited); neg: negative results (analog BN did not inhibit bacteria growing)
# Experimental: as §4, §5
# S. aureus ATCC 25923 = assay: as above; format: cell-based, Staphylococcus aureus; conditions: 18 h; for Difference between optical density before and after culture, S. aureus ATCC 25923: 37 °C; for Inhibition of growth of S. aureus ATCC 25923 (in words): 250 µM
# Experimental: as §4, §5
# [4] = tested on: MCF-7 (human breast adenocarcinoma cell line); assay: Cytotoxicity, CCK-8 cell viability assay; format: cell-based; conditions: read-out: Activity IC50, MCF-7
# Experimental: as §1, §2
# as §3, with “After 24 h, the culture medium was removed and 100 µL of fresh medium containing the test compounds at 0–12.5 µM concentrations was added to the culture wells.” left out
# [5] = tested on: HCT 116 (colorectal carcinoma cell line); assay: Cytotoxicity, CCK-8 cell viability assay; format: cell-based; conditions: Homo sapiens, read-out: Activity IC50, HCT 116
# Experimental: as §1, §2, §3
# [6] = CCK-8 assay, incubation time 24 h, mean ± SD (n = 3)
# [7] = MCF7, CCK-8 assay, incubation time 24 h, mean ± SD (n = 3)
# [8] = HCT-116, CCK-8 assay, incubation time 24 h, mean ± SD (n = 3)
SMILES,"IC50 [1, 6] [µM]","Difference between optical density before and after culture, S. epidermidis ATCC 12228 ([2]; 200 μM)","Difference between optical density before and after culture, S. epidermidis ATCC 12228 ([2]; 250 μM)",Inhibition of growth of S. epidermidis ATCC 12228 (in words) [2],"Difference between optical density before and after culture, Escherichia coli ATCC 25922 ([3]; 200 μM)","Difference between optical density before and after culture, Escherichia coli ATCC 25922 ([3]; 250 μM)","Difference between optical density before and after culture, S. aureus ATCC 25923 (S. aureus ATCC 25923; 200 μM)","Difference between optical density before and after culture, S. aureus ATCC 25923 (S. aureus ATCC 25923; 250 μM)",Inhibition of growth of S. aureus ATCC 25923 (in words) (S. aureus ATCC 25923),"IC50 [4, 7] [µM]","IC50 [5, 8] [µM]",IC50 ([1]; 24 h) [µM],"IC50 ([4]; MCF7, 24 h) [µM]","IC50 ([5]; HCT-116, 24 h) [µM]"
"C=C(C)[C@@H]1CC[C@]2(COC(=O)CCC(=O)OCCC[P+](c3ccccc3)(c3ccccc3)c3ccccc3)CC[C@]3(C)C(CCC4[C@@]5(C)CC[C@H](OC(C)=O)C(C)(C)C5CC[C@]43C)C12 (some centres unmarked) [7a, 3-O-Acetyl-28-O’-(3’-(3""-triphenylphosphoniopropyloxycarbonyl)propanoyl)betulin bromide]",9.68 ± 0.27,neg,0,greatly inhibited the growth,neg,neg,0.9 McFarland’s scale (CFU/mL),0,greatly inhibited the growth,13.7 ± 0.54,5.56 ± 0.28,,,
"C=C(C)[C@@H]1CC[C@]2(COC(=O)CCC(=O)OCCCC[P+](c3ccccc3)(c3ccccc3)c3ccccc3)CC[C@]3(C)C(CCC4[C@@]5(C)CC[C@H](OC(C)=O)C(C)(C)C5CC[C@]43C)C12 (some centres unmarked) [7b, 3-O-Acetyl-28-O’-(3’-(4""-triphenylphosphoniobutyloxycarbonyl)propanoyl)betulin bromide]",10.7 ± 0.25,neg,0,greatly inhibited the growth,neg,neg,2.2 McFarland’s scale (CFU/mL),0,greatly inhibited the growth,14.3 ± 0.38,5.77 ± 0.27,,,
"C=C(C)[C@@H]1CC[C@]2(COC(=O)CCC(=O)OCCCCC[P+](c3ccccc3)(c3ccccc3)c3ccccc3)CC[C@]3(C)C(CCC4[C@@]5(C)CC[C@H](OC(C)=O)C(C)(C)C5CC[C@]43C)C12 (some centres unmarked) [7c, 3-O-Acetyl-28-O’-(3’-(5""-triphenylphosphoniopentyloxycarbonyl)propanoyl)betulin bromide]",11.3 ± 0.53,neg,,,neg,neg,1.0 McFarland’s scale (CFU/mL),,,15.5 ± 0.92,6.48 ± 0.04,,,
"C=C(C)[C@@H]1CC[C@]2(COC(=O)CC(C)(C)C(=O)OCCC[P+](c3ccccc3)(c3ccccc3)c3ccccc3)CC[C@]3(C)C(CCC4[C@@]5(C)CC[C@H](OC(C)=O)C(C)(C)C5CC[C@]43C)C12 (some centres unmarked) [7d, 3-O-Acetyl-28-O’-(3’,3’-dimethyl-3’-(3""-triphenylphosphoniopropyloxycarbonyl)propanoyl)betulin bromide]",,0,0,,neg,neg,0,0,,,,,,
"C=C(C)[C@@H]1CC[C@]2(COC(=O)CC(C)(C)C(=O)OCCCC[P+](c3ccccc3)(c3ccccc3)c3ccccc3)CC[C@]3(C)C(CCC4[C@@]5(C)CC[C@H](OC(C)=O)C(C)(C)C5CC[C@]43C)C12 (some centres unmarked) [7e, 3-O-Acetyl-28-O’-(3’,3’-dimethyl-3’-(4""-triphenylphosphoniobutyloxycarbonyl)propanoyl)betulin bromide]",,0,0,,neg,neg,0,0,,,,,,
"C=C(C)[C@@H]1CC[C@]2(COC(=O)CC(C)(C)C(=O)OCCCCC[P+](c3ccccc3)(c3ccccc3)c3ccccc3)CC[C@]3(C)C(CCC4[C@@]5(C)CC[C@H](OC(C)=O)C(C)(C)C5CC[C@]43C)C12 (some centres unmarked) [7f, 3-O-Acetyl-28-O’-(3’,3’-dimethyl-3’-(5""-triphenylphosphoniopentyloxycarbonyl)propanoyl)betulin bromide]",10 ± 0.48,0,0,,neg,neg,0,0,,50.5 ± 3.92,12.7 ± 0.89,,,
"C=C(C)[C@@H]1CC[C@]2(COC(=O)CCC(=O)OCCC[P+](c3ccccc3)(c3ccccc3)c3ccccc3)CC[C@]3(C)C(CCC4[C@@]5(C)CC[C@H](OC(=O)CCC(=O)OCCC[P+](c6ccccc6)(c6ccccc6)c6ccccc6)C(C)(C)C5CC[C@]43C)C12 (some centres unmarked) [9a, 3,28-O,O′-Bis(3’-(3""-triphenylphosphoniopropyloxycarbonyl)propanoyl)betulin bromide]",,0,0,,neg,neg,0,0,,,,5.91 ± 0.33,31.3 ± 3.02,6.32 ± 0.27
